The record followed here is patent publication US6867185B2 (Bristol-Myers Squibb Company, priority 2001, dated 2005).

Each structure is given as a SMILES string. Counter-ions that a name gives are not always drawn.

The test system of assay [1] is HCV replicon in Huh7 cells. The assay is described as follows: HCV replicon cell-based assay (replicon FRET assay). The arrangement: species or system HCV strain 1B. The conditions noted are these: Hepatitis C virus, Huh-7, HCV replicon cell assay; EC50 ranges. From the text:
An HCV replicon whole cell system was established as described by Lohmann V, Korner F, Koch J, Herian U, Theilmann L, Bartenschlager R., Science 285 (5424):110-3 (1999). This system enabled us to evaluate the effects of our HCV Protease compounds on HCV RNA replication. Briefly, using the HCV strain 1B sequence described in the Lohmann paper (Assession number:AJ238799), an HCV cDNA was generated encoding the 5′ internal ribosome entry site (IRES), the neomycin resistance gene, the EMCV (encephalomyocarditis viurs)-IRES and the HCV nonstructural proteins, NS3-NS5B, and 3′ non-translated region (NTR). In vitro transcripts of the cDNA were transfected into the human hepatoma cell line, Huh7. […] Resulting cell lines were characterized for positive and negative strand RNA production and protein production over time.
Huh7 cells, constitutively expressing the HCV replicon, were grown in Dulbecco's Modified Eagle Media (DMEM) containing 10% Fetal calf serum (FCS) and 1 mg/ml G418 (Gibco-BRL). Cells were seeded the night before (1.5×10^4 cells/well) in 96-well tissue-culture sterile plates. Compound and no compound controls were prepared in DMEM containing 4% FCS, 1:100 Penicillin/Streptomysin, 1:100 L-glutamine and 5% DMSO in the dilution plate (0.5% DMSO final concentration in the assay). Compound/DMSO mixes were added to the cells and incubated for 4 days at 37° C. After 4 days, plates were rinsed thoroughly with Phosphate-Buffered Saline (PBS) (3 times 150 μl). The cells were lysed with 25 μl of a lysis assay reagent containing the FRET peptide (RET S1, as described for the in vitro enzyme assay). The lysis assay reagent was made from 5× cell Luciferase cell culture lysis reagent(Promega #E153A) diluted to 1× with distilled water, NaCl added to 150 mM final, the FRET peptide diluted to 10 μM final from a 2 mM stock in 100% DMSO. The plate was then placed into the Cytofluor 4000 instrument which had been set to 340 nm excitation/490 emission, automatic mode for 21 cycles and the plate read in a kinetic mode. EC50 determinations were carried out as described for the IC50 determinations.

The target in assay [2] is T1, HCV NS3/4A protease complex, BMS strain (genotype 1a) (Hepatitis C virus genotype 1a, UniProt P27958, C1454S/C1711G).
T1 construct: recombinant HCV NS3/4A protease complex (amino'acids 1027 to 1711); inferred from the pET21b vector and Ni-NTA purification; made in house; host or cells: Escherichia coli BL21 (DE3), pET21b
T1 sequence (P27958 1027-1711 C1454S/C1711G, one chain of several): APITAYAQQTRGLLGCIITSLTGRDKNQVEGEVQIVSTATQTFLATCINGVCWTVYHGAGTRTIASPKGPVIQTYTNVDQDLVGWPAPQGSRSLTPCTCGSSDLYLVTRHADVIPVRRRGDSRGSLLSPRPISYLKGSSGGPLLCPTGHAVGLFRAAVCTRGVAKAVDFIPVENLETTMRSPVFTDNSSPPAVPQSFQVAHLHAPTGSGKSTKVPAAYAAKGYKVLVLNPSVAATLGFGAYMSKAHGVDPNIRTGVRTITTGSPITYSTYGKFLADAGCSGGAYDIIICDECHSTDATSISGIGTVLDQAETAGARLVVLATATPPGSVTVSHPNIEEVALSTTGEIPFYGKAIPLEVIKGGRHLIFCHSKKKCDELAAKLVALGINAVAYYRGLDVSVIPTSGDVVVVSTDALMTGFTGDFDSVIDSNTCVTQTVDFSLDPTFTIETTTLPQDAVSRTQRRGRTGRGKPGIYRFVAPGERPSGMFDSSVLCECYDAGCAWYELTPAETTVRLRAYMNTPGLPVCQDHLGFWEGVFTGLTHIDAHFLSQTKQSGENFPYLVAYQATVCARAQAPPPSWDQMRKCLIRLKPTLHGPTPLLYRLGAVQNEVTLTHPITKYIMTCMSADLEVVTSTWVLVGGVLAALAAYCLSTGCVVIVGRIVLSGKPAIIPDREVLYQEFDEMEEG
The assay is described as follows: Recombinant HCV NS3/4A protease complex FRET peptide assay (BMS strain). Format: biochemical. The following applies: IC50, HCV NS3/4A protease FRET assay in vitro; IC50 ranges. From the text:
The purpose of this in vitro assay was to measure the inhibition of HCV NS3 protease complexes, derived from the BMS, H77C or J4L6S strains, as described below, by compounds of the present invention. This assay provides an indication of how effective compounds of the present invention would be in inhibiting HCV proteolytic activity.
Serum from an HCV-infected patient was obtained from Dr. T. Wright, San Francisco Hospital. An engineered full-length cDNA (compliment deoxyribonucleic acid) template of the HCV genome (BMS strain) was constructed from DNA fragments obtained by reverse transcription-PCR (RT-PCR) of serum RNA (ribonucleic acid) and using primers selected on the basis of homology between other genotype 1a strains. From the determination of the entire genome sequence, a genotype 1a was assigned to the HCV isolate according to the classification of Simmonds et al. (See P Simmonds, K A Rose, S Graham, S W Chan, F McOmish, B C Dow, E A Follett, P L Yap and H Marsden, J. Clin. Microbiol., 31 (6), 1493-1503 (1993)). […] The infectious clones, H77C (1a genotype) and J4L6S (1b genotype) were obtained from R. Purcell (N1H) and the sequences are published in Genbank (AAB67036, see Yanagi, M., Purcell, R. H., Emerson, S. U. and Bukh, J. Proc. Natl. Acad. Sci. U.S.A. 94 (16), 8738-8743 (1997); AF054247, see Yanagi, M., St Claire, M., Shapiro, M., Emerson, S. U., Purcell, R. H. and Bukh, J, Virology 244 (1), 161-172. (1998)).
The BMS, H77C and J4L6S strains were used for production of recombinant NS3/4A protease complexes. DNA encoding the recombinant HCV NS3/4A protease complex (amino'acids 1027 to 1711) for these strains were manipulated as described by P. Gallinari et al. (see Gallinari P, Paolini C, Brennan D, Nardi C, Steinkuhler C, De Francesco R. Biochemistry. 38 (17):5620-32, (1999)). Briefly, a three-lysine solubilizing tail was added at the 3′-end of the NS4A coding region. The cysteine in the P1 position of the NS4A-NS4B cleavage site (amino acid 1711) was changed to a glycine to avoid the proteolytic cleavage of the lysine tag. Furthermore, a cysteine to serine mutation was introduced by PCR at amino acid position 1454 to prevent the autolytic cleavage in the NS3 helicase domain. The variant DNA fragment was cloned in the pET21b bacterial expression vector (Novagen)and the NS3/4A complex was expressed in Escherichia. coli strain BL21 (DE3) (Invitrogen) following the protocol described by P. Gallinari et al. (see Gallinari P, Brennan D, Nardi C, Brunetti M, Tomei L, Steinkuhler C, De Francesco R., J. Virol. 72 (8):6758-69 (1998)) with modifications. Briefly, NS3/4A expression was induced with 0.5 mM Isopropyl β-D-1-thiogalactopyranoside (IPTG) for 22 hr at 20° C. A typical fermentation (10L) yielded approximately 80 g of wet cell paste. The cells were resuspended in lysis buffer (10 mL/g) consisting of 25 mM N-(2-Hydroxyethyl)Piperazine-N′-(2-Ethane Sulfonic acid) (HEPES), pH 7.5, 20% glycerol, 500 mM Sodium Chloride (NaCl), 0.5% Triton-X100, 1 ug/ml lysozyme, 5 mM Magnesium Chloride (MgCl2), 1 ug/ml Dnasel, 5 mM β-Mercaptoethanol (OME), Protease inhibitor-Ethylenediamine Tetraacetic acid (EDTA) free (Roche), homogenized and incubated for 20 mins at 4° C. The homogenate was sonicated and clarified by ultra-centrifugation at 235000 g for 1 hr at 4° C. Imidazole was added to the supernatant to a final concentration of 15 mM and the pH adjusted to 8.0. The crude protein extract was loaded on a Nickel-Nitrilotriacetic acid (Ni-NTA) column pre-equilibrated with buffer B (25 mM HEPES, pH 8.0, 20% glycerol, 500 mM NaCl, 0.5% Triton-X100, 15 mM imidazole, 5 mM βME). The sample was loaded at a flow rate of 1 mL/min. The column was washed with 15 column volumes of buffer C (same as buffer B except with 0.2% Triton-X100). The protein was eluted with 5 column volumes of buffer D (same as buffer C except with 200 mM Imidazole). […]

`COc1ccc2c(O[C@@H]3C[C@H]4C(=O)N[C@]5(C(=O)NS(=O)(=O)C6CC6)CC5/C=C/CCC[C@H](NC(=O)OC(C)(C)C)C(=O)N4C3)cc(-c3ccccc3)nc2c1` (stereo partly drawn) [Compound 3, (1S,4R,6S,12S,16R)-7-trans-[4-Cyclopropanesulfonyl-aminocarbonyl-16-(7-methoxy-2-phenylquinolin-4-yloxy)-2,13-dioxo-3,14-diazatricyclo[12.3.0.0^4,6]heptadec-7-en-12-yl]carbamic acid tert-butyl ester]: the EC50 (commonly the midpoint of the concentration-response curve) in assay [1] is less than 50000 nM. The IC50 (commonly the concentration needed to halve the response being measured) in assay [2] is less than 5000 nM.
Regarding `COc1ccc2c(O[C@@H]3C[C@H]4C(=O)N[C@]5(C(=O)NS(=O)(=O)C6CC6)CC5/C=C\CCCSC[C@H](NC(=O)OC(C)(C)C)C(=O)N4C3)cc(-c3ccccc3)nc2c1` (stereo partly drawn) [Compound 31, (1S,4R,6S,14S,18R)-7-cis-[4-Cyclopropanesulfonylaminocarbonyl-18-(7-methoxy-2-phenyl-quinolin-4-yloxy)-2,15-dioxo-12-thia-3,16-diazatricyclo[14.3.0.0^4,6]nonadec-7-en-14-yl]-carbamic acid tert-butyl ester], in assay [1], the EC50 is less than 50 nM. Besides, in assay [2], the IC50 was less than 50 nM.
`CC(C)(C)OC(=O)N[C@H]1CCCCC/C=C\[C@@H]2C[C@@]2(C(=O)NS(=O)(=O)C2CC2)NC(=O)[C@@H]2C[C@@H](Oc3ccnc4ccccc34)CN2C1=O` [Compound 29, (1S,4R,6S,14S,18R)-7-cis-[4-Cyclopropanesulfonylaminocarbonyl-2,15-dioxo-18-(quinolin-4-yloxy)-3,16-diazatricyclo[14.3.0.0^4,6]nonadec-7-en-14-yl]carbamic acid tert-butyl ester] came in with an EC50 in assay [1] of less than 50 nM. The IC50 in assay [2] was less than 50 nM.
`COc1ccc2c(O[C@@H]3C[C@H]4C(=O)N[C@]5(C(=O)NS(=O)(=O)C6CC6)C[C@H]5CCCCCC[C@H](N)C(=O)N4C3)cc(-c3ccccc3)nc2c1` [Compound 14, (1S,4R,6R,13S,17R)-Cyclopropanesulfonic acid [13-amino-17-(7-methoxy-2-phenylquinolin-4-yloxy)-2,14-dioxo-3,15-diazatricyclo[13.3.0.0^4,6]-octadecane-4-carbonyl]amide dihydrochloride] gave an EC50 in assay [1] of less than 50 nM. The IC50 in assay [2] is less than 50 nM.
As for `COc1ccc2c(O[C@@H]3C[C@H]4C(=O)N[C@]5(C(=O)NS(=O)(=O)C6CC6)C[C@H]5CCCCCCC[C@H](NC(=O)OCC(C)(C)C)C(=O)N4C3)cc(-c3ccccc3)nc2c1` [Compound 22, (1S,4R,6R,14S,18R)-[4-Cyclopropanesulfonylaminocarbonyl-18-(7-methoxy-2-phenylquinolin-4-yloxy)-2,15-dioxo-3,16-diazatricyclo[14.3.0.0^4,6]-nonadec-14-yl]carbamic acid 2,2-dimethylpropyl ester], the EC50 in assay [1] is less than 50 nM. Besides, the IC50 in assay [2] was less than 50 nM.
In turn, `COc1ccc2c(O[C@@H]3C[C@H]4C(=O)N[C@]5(C(=O)NS(=O)(=O)C6CC6)CC5/C=C\CCCCC[C@H](N)C(=O)N4C3)cc(-c3ccccc3)nc2c1` (stereo partly drawn) [Compound 10, (1S,4R,6S,14S,18R)-7-cis-Cyclopropane-sulfonic acid [14-amino-18-(7-methoxy-2-phenylquinol-in-4-yloxy)-2,15-dioxo-3,16-diazatricyclo[14.3.0.0^4,6]-nonadec-7-ene-4-carbonyl]amide dihydrochloride] had an EC50 in assay [1] of less than 50 nM. Further, the IC50 in assay [2] is less than 50 nM.
As to `COc1ccc2c(O[C@@H]3C[C@H]4C(=O)N[C@]5(C(=O)NS(=O)(=O)C6CC6)CC5CCCCCCC[C@H](NC(=O)OC5CCOCC5)C(=O)N4C3)cc(-c3ccccc3)nc2c1` (stereo partly drawn) [Compound 23, (1S,4R,6R,14S,18R)-[4-Cyclopropanesulfonyl-aminocarbonyl-18-(7-methoxy-2-phenylquinolin-4-yloxy)-2,15-dioxo-3,16-diazatricyclo[14.3.0.0^4,6]nonadec-14-yl]carbamic acid tetrahydro[4H]pyran-4-yl ester], the EC50 in assay [1] is less than 50 nM. Further, the IC50 in assay [2] is less than 50 nM.
`COc1ccc2c(O[C@@H]3C[C@H]4C(=O)N[C@]5(C(=O)NS(=O)(=O)C6CC6)CC5/C=C\CCCC[C@H](NC(=O)OC(C)(C)C)C(=O)N4C3)cc(-c3ccccc3)nc2c1` (stereo partly drawn) [Compound 7, (1S,4R,65,13S,17R)-7-cis-[4-Cyclopropanesulfonylamino-carbonyl-17-(7-methoxy-2-phenylquinolin-4-yloxy)-2,14-dioxo-3,15-diazatricyclo[13.3.0.0^4,6]octadec-7-en-13-yl]carbamic acid tert-butyl ester] yielded an EC50 in assay [1] of less than 50 nM. Further, the IC50 in assay [2] is less than 50 nM.
In turn, `COc1ccc2c(O[C@@H]3C[C@H]4C(=O)N[C@]5(C(=O)NS(=O)(=O)C6CC6)C[C@H]5/C=C\CCCCC[C@@H](NC(=O)OC(C)(C)C)C(=O)N4C3)ccnc2c1` [Compound 12] gave an EC50 in assay [1] of less than 500 nM. Moreover, the IC50 in assay [2] is less than 500 nM.
`COc1ccc2c(O[C@@H]3C[C@H]4C(=O)N[C@]5(C(=O)NS(=O)(=O)C6CC6)C[C@H]5/C=C/CC[C@H](NC(=O)OC(C)(C)C)C(=O)N4C3)cc(-c3ccccc3)nc2c1` [Compound 1, (1S,4R,6S,11S,15R)-7-trans-[4-Cyclopropanesulfonyl-amino-carbonyl-15-(7-methoxy-2-phenylquinolin-4-yloxy)-2,12-dioxo-3,13-diazatricyclo[11.3.0.0^4,6]hexa-dec-7-en-11-yl]carbamic acid tert-butyl ester]: the concentration for a half-maximal effect (EC50) in assay [1] was less than 50000 nM. In addition, the IC50 in assay [2] was less than 5000 nM.
